{
  "source": "patent US10519177B2",
  "about": "“Heterocyclic compounds and uses thereof” (Plexxikon Inc., priority 2013, dated 2019)",
  "data": [
    {"tested_on": "bromodomain", "assay": "at least one of the bromodomain cell assays of Example 57", "assay_type": "cell-based", "conditions": "at least one of the bromodomain cell assays described in Example 57; read-out: IC50 in at least one of the bromodomain cell assays", "units": {"IC50": "µM"}, "values": [
      {"smiles": "Cc1noc(C)c1-c1ccc2c(-c3ccc(C(=O)O)cc3)cn([C@H](c3ccccc3)c3ccccn3)c2c1", "note": "[P-0755, 4-[6-(3,5-dimethylisoxazol-4-yl)-1-[(R)-phenyl(2-pyridyl)methyl]indol-3-yl]benzoic acid]", "IC50": "< 10"},
      {"smiles": "CCOC(=O)c1ccc(-c2cn([C@H](c3ccccc3)c3ccccn3)c3cc(-c4c(C)noc4C)ccc23)cc1", "note": "[P-0756, ethyl 4-[6-(3,5-dimethylisoxazol-4-yl)-1-[(R)-phenyl(2-pyridyl)methyl]indol-3-yl]benzoate]", "IC50": "< 10"},
      {"smiles": "Cc1noc(C)c1-c1ccc2c(-c3ccc(CO)cc3)cn([C@H](c3ccccc3)c3ccccn3)c2c1", "note": "[P-0757, [4-[6-(3,5-dimethylisoxazol-4-yl)-1-[(R)-phenyl(2-pyridyl)methyl]indol-3-yl]phenyl]methanol]", "IC50": "< 10"},
      {"smiles": "Cc1noc(C)c1-c1ccc2c(-c3ccc(C#N)nc3)cn([C@H](c3ccccc3)c3ccccn3)c2c1", "note": "[P-0758, 5-[6-(3,5-dimethylisoxazol-4-yl)-1-[(R)-phenyl(2-pyridyl)methyl]indol-3-yl]pyridine-2-carbonitrile]", "IC50": "< 10"},
      {"smiles": "Cc1cc(-c2cnc3c(-c4ccc(C(=O)O)cc4)cn(CC4CCCCC4)c3c2)cn(C)c1=O", "note": "[P-0759, 4-[1-(cyclohexylmethyl)-6-(1,5-dimethyl-6-oxo-3-pyridyl)pyrrolo[3,2-b]pyridin-3-yl]benzoic acid]", "IC50": "< 10"},
      {"smiles": "Cc1cc(-c2ccc3c(-c4ccc(C(=O)O)cc4)cn(CC4CCCCC4)c3c2)cn(C)c1=O", "note": "[P-0760, 4-[1-(cyclohexylmethyl)-6-(1,5-dimethyl-6-oxo-3-pyridyl)indol-3-yl]benzoic acid]", "IC50": "< 10"},
      {"smiles": "Cc1cc(-c2cnc3c(-c4ccc(C(=O)O)cc4)cn([C@@H](C)c4ccccn4)c3c2)cn(C)c1=O", "note": "[P-0761, 4-[6-(1,5-dimethyl-6-oxo-3-pyridyl)-1-[(1S)-1-(2-pyridyl)ethyl]pyrrolo[3,2-b]pyridin-3-yl]benzoic acid]", "IC50": "< 10"},
      {"smiles": "Cc1cc(-c2ccc3c(-c4ccc(C(=O)O)cc4)cn([C@@H](C)c4ccccn4)c3c2)cn(C)c1=O", "note": "[P-0762, 4-[6-(1,5-dimethyl-6-oxo-3-pyridyl)-1-[(1S)-1-(2-pyridyl)ethyl]indol-3-yl]benzoic acid]", "IC50": "< 10"},
      {"smiles": "Cn1cc(-c2ccc3c(-c4ccc(C(=O)O)cc4)cn(CC4CCCCC4)c3c2)cc(Cl)c1=O", "note": "[P-0763, 4-[6-(5-chloro-1-methyl-6-oxo-3-pyridyl)-1-(cyclohexylmethyl)indol-3-yl]benzoic acid]", "IC50": "< 10"},
      {"smiles": "Cn1cc(-c2cnc3c(-c4ccc(C(=O)O)cc4)cn(CC4CCCCC4)c3c2)cc(Cl)c1=O", "note": "[P-0764, 4-[6-(5-chloro-1-methyl-6-oxo-3-pyridyl)-1-(cyclohexylmethyl)pyrrolo[3,2-b]pyridin-3-yl]benzoic acid]", "IC50": "< 10"},
      {"smiles": "C[C@@H](c1ccccn1)n1cc(-c2ccc(C(=O)O)cc2)c2ccc(-c3cc(Cl)c(=O)n(C)c3)cc21", "note": "[P-0765, 4-[6-(5-chloro-1-methyl-6-oxo-3-pyridyl)-1-[(1S)-1-(2-pyridyl)ethyl]indol-3-yl]benzoic acid]", "IC50": "< 10"},
      {"smiles": "C[C@@H](c1ccccn1)n1cc(-c2ccc(C(=O)O)cc2)c2ncc(-c3cc(Cl)c(=O)n(C)c3)cc21", "note": "[P-0766, 4-[6-(5-chloro-1-methyl-6-oxo-3-pyridyl)-1-[(1S)-1-(2-pyridyl)ethyl]pyrrolo[3,2-b]pyridin-3-yl]benzoic acid]", "IC50": "< 10"},
      {"smiles": "Cc1noc(C)c1-c1cnc2c(-c3ccc(C(=O)O)cc3)cn(CC3(C)COC3)c2c1", "note": "[P-0767, 4-[6-(3,5-dimethylisoxazol-4-yl)-1-[(3-methyloxetan-3-yl)methyl]pyrrolo[3,2-b]pyridin-3-yl]benzoic acid]", "IC50": "< 10"},
      {"smiles": "Cc1noc(C)c1-c1cnc2c(-c3ccc(C(=O)O)cc3)cn(CC3CCCCO3)c2c1", "note": "(centres unmarked) [P-0768, 4-[6-(3,5-dimethylisoxazol-4-yl)-1-(tetrahydrpyran-2-ylmethyl)pyrrolo[3,2-b]pyridin-3-yl]benzoic acid]", "IC50": "< 10"},
      {"smiles": "Cc1noc(C)c1-c1cnc2c(-c3ccc(C(=O)O)cc3)cn(CC3CCOCC3)c2c1", "note": "[P-0769, 4-[6-(3,5-dimethylisoxazol-4-yl)-1-(tetrahydropyran-4-ylmethyl)pyrrolo[3,2-b]pyridin-3-yl]benzoic acid]", "IC50": "< 10"},
      {"smiles": "Cc1noc(C)c1-c1cnc2c(-c3ccc(CC(=O)O)cc3)cn(CC3CCOCC3)c2c1", "note": "[P-0771, 2-[4-[6-(3,5-dimethylisoxazol-4-yl)-1-(tetrahydropyran-4-ylmethyl)pyrrolo[3,2-b]pyridin-3-yl]phenyl]acetic acid]", "IC50": "< 10"},
      {"smiles": "Cc1noc(C)c1-c1cnc2c(-c3ccc(C4(C(=O)O)CC4)cc3)cn(CC3CCOCC3)c2c1", "note": "[P-0772, 1-[4-[6-(3,5-dimethylisoxazol-4-yl)-1-(tetrahydropyran-4-ylmethyl)pyrrolo[3,2-b]pyridin-3-yl]phenyl]cyclopropanecarboxylic acid]", "IC50": "< 10"},
      {"smiles": "Cc1noc(C)c1-c1cnc2c(-c3ccc(C(C)(C)C(=O)O)cc3)cn(CC3CCOCC3)c2c1", "note": "[P-0773, 2-[4-[6-(3,5-dimethylisoxazol-4-yl)-1-(tetrahydropyran-4-ylmethyl)pyrrolo[3,2-b]pyridin-3-yl]phenyl]-2-methyl-propanoic acid]", "IC50": "< 10"},
      {"smiles": "Cc1noc(C)c1-c1cnc2c(-c3ccc(C4(C(=O)O)CC4)cc3)cn(CC3(C)CCOCC3)c2c1", "note": "[P-0777, 1-[4-[6-(3,5-dimethylisoxazol-4-yl)-1-[(4-methyltetrahydropyran-4-yl)methyl]pyrrolo[3,2-b]pyridin-3-yl]phenyl]cyclopropanecarboxylic acid]", "IC50": "< 10"},
      {"smiles": "Cc1noc(C)c1-c1ccc2c(-c3ccc(C(=O)O)cc3)cn(CC3(C)CCCCC3)c2c1", "note": "[P-0779, 4-[6-(3,5-dimethylisoxazol-4-yl)-1-[(1-methylcyclohexyl)methyl]indol-3-yl]benzoic acid]", "IC50": "< 10"},
      {"smiles": "COc1cc(-c2cn(CC3(C)CCCCC3)c3cc(-c4c(C)noc4C)cnc23)ccc1C(=O)O", "note": "[P-0780, 4-[6-(3,5-dimethylisoxazol-4-yl)-1-[(1-methylcyclohexyl)methyl]pyrrolo[3,2-b]pyridin-3-yl]-2-methoxy-benzoic acid]", "IC50": "< 10"},
      {"smiles": "Cc1noc(C)c1-c1cnc2c(-c3ccc(CC(=O)O)cc3)cn(CC3(C)CCCCC3)c2c1", "note": "[P-0781, 2-[4-[6-(3,5-dimethylisoxazol-4-yl)-1-[(1-methylcyclohexyl)methyl]pyrrolo[3,2-b]pyridin-3-yl]phenyl]acetic acid]", "IC50": "< 10"},
      {"smiles": "Cc1noc(C)c1-c1cnc2c(-c3ccc(C4(C(=O)O)CC4)cc3)cn(CC3(C)CCCCC3)c2c1", "note": "[P-0782, 1-[4-[6-(3,5-dimethylisoxazol-4-yl)-1-[(1-methylcyclohexyl)methyl]pyrrolo[3,2-b]pyridin-3-yl]phenyl]cyclopropanecarboxylic acid]", "IC50": "< 10"},
      {"smiles": "Cc1noc(C)c1-c1cnc2c(-c3ccc(C(C)(C)C(=O)O)cc3)cn(CC3(C)CCCCC3)c2c1", "note": "[P-0783, 2-[4-[6-(3,5-dimethylisoxazol-4-yl)-1-[(1-methylcyclohexyl)methyl]pyrrolo[3,2-b]pyridin-3-yl]phenyl]-2-methyl propanoic acid]", "IC50": "< 10"},
      {"smiles": "[2H]C([2H])([2H])c1ccc(-c2cn(CC3CCCCC3)c3cc(-c4c(C)noc4C)cnc23)cc1", "note": "[P-0785, 4-[1-(cyclohexylmethyl)-3-[4-(trideuteriomethyl)phenyl]pyrrolo[3,2-b]pyridin-6-yl]-3,5-dimethyl-isoxazole]", "IC50": "< 10"},
      {"smiles": "[2H]C([2H])([2H])c1ccc(-c2cn([C@@H](c3ccccc3)c3ccccn3)c3cc(-c4c(C)noc4C)cnc23)cc1", "note": "[P-0786, 3,5-dimethyl-4-[1-[(S)-phenyl(2-pyridyl)methyl]-3-[4-(trideuteriomethyl)phenyl]pyrrolo[3,2-b]pyridin-6-yl]isoxazole]", "IC50": "< 10"},
      {"smiles": "[2H]C([2H])([2H])c1ccc(-c2cn([C@H](c3ccccc3)c3ccccn3)c3cc(-c4c(C)noc4C)cnc23)cc1", "note": "[P-0787, 3,5-dimethyl-4-[1-[(R)-phenyl(2-pyridyl)methyl]-3-[4-(trideuteriomethyl)phenyl]pyrrolo[3,2-b]pyridin-6-yl]isoxazole]", "IC50": "< 10"},
      {"smiles": "Cc1ccc(-c2cn([C@@H](c3ccccc3)c3ccccn3)c3cc(-c4c(C)noc4C)ccc23)cc1", "note": "[P-0789, 3,5-dimethyl-4-[1-[(S)-phenyl(2-pyridyl)methyl]-3-(p-tolyl)indol-6-yl]isoxazole]", "IC50": "< 10"},
      {"smiles": "Cc1ccc(-c2cn([C@H](c3ccccc3)c3ccccn3)c3cc(-c4c(C)noc4C)ccc23)cc1", "note": "[P-0790, 3,5-dimethyl-4-[1-[(R)-phenyl(2-pyridyl)methyl]-3-(p-tolyl)indol-6-yl]isoxazole]", "IC50": "< 10"},
      {"smiles": "Cc1ccc(-c2cn([C@@H](C)c3ccccn3)c3cc(-c4cc(C)c(=O)n(C)c4)cnc23)cc1", "note": "[P-0791, 1,3-dimethyl-5-[3-(p-tolyl)-1-[(1S)-1-(2-pyridyl)ethyl]pyrrolo[3,2-b]pyridin-6-yl]pyridin-2-one]", "IC50": "< 10"},
      {"smiles": "Cc1ccc(-c2cn(CC3(C)CCCCC3)c3cc(-c4c(C)noc4C)cnc23)cc1", "note": "[P-0792, 3,5-dimethyl-4-[1-[(1-methylcyclohexyl)methyl]-3-(p-tolyl)pyrrolo[3,2-b]pyridin-6-yl]isoxazole]", "IC50": "< 10"},
      {"smiles": "Cc1ccc(-c2cn(CC3CCOCC3)c3cc(-c4c(C)noc4C)cnc23)cc1", "note": "[P-0793, 3,5-dimethyl-4-[3-(p-tolyl)-1-(tetrahydropyran-4-ylmethyl)pyrrolo[3,2-b]pyridin-6-yl]isoxazole]", "IC50": "< 10"},
      {"smiles": "Cc1ccc(-c2cn(CC3CC4CC4C3)c3cc(-c4c(C)noc4C)cnc23)cc1", "note": "(centres unmarked) [P-0795, 4-[1-(3-bicyclo[3.1.0]hexanylmethyl)-3-(p-tolyl)pyrrolo[3,2-b]pyridin-6-yl]-3,5-dimethyl-isoxazole]", "IC50": "< 10"},
      {"smiles": "Cc1noc(C)c1-c1cnc2c(-c3ccc4c(c3)COC4=O)cn(CC3CCC(F)(F)CC3)c2c1", "note": "[P-0796, 5-[1-[(4,4-difluorocyclohexyl)methyl]-6-(3,5-dimethylisoxazol-4-yl)pyrrolo[3,2-b]pyridin-3-yl]-3H-isobenzofuran-1-one]", "IC50": "< 10"},
      {"smiles": "Cc1noc(C)c1-c1cnc2c(-c3ccc4c(c3)COC4=O)cn(CC3CCCCC3)c2c1", "note": "[P-0797, 5-[1-(cyclohexylmethyl)-6-(3,5-dimethylisoxazol-4-yl)pyrrolo[3,2-b]pyridin-3-yl]-3H-isobenzofuran-1-one]", "IC50": "< 10"}
    ]}
  ]
}
